From US7153472B1, “Preservation and formulation of bioactive materials for storage and delivery in hydrophobic carriers” (priority 2000, dated 2006)

Key:
[1] = Potency of Amphotericin after foam drying and storage; assay type: physicochemical
Procedure: Freeze-dried samples of Amphotericin B were rehydrated with 5 ml 40 wt % sucrose per vial. Then the solutions (5 ml) were transferred into 50 ml sterilized glass vials for future preservation by drying. Before drying, the vials were covered with gray butyl slotted rubber stoppers. The vials were dried inside a vacuum chamber. The vials were placed on the surface of a stainless steel shelf inside the chamber. Before the vacuum was applied the shelf temperature was decreased to 5 C. The hydrostatic pressure inside the chamber was decreased to 0.5 Torr. Under such conditions the suspension boiled for 30 min. The temperature of the shelf was then slowly (during 30 min) increased to 25 C. Visually, stable dry foams were formed inside the vials under these experimental conditions within 3 hours. After an additional 12 hours of drying at room temperature, the chamber was filled with the dry N2 gas and the rubber stoppers in a portion of the vials were pushed down. The vials were removed from the chamber and subsequently sealed with aluminum crimped seal. The samples were assayed right after drying and after 30 days of storage at 27.5 and 40 C. The results are shown in Table 1, together with the results obtained in the next experiment.
Another set of freeze-dried samples of Amphotericin B was rehydrated with 5 ml 40 wt % sucrose per vial. The solutions were then transferred into sterilized glass vials for future preservation by drying similar to that described above with additional drying at 45 C for additional 24 hours. After that, the chamber was filled again with the dry N2 gas, the rubber stoppers were pushed down and the vials were sealed. The samples were assayed right after drying and after 30 day of storage at 27.5 and 40 C.

[2] = Urokinase activity after foam drying and storage; assay type: biochemical
Procedure: Freeze-dried samples of Urokinase were rehydrated with 2 ml of 40 wt % sucrose. The solutions were then transferred to 20 ml sterilized glass vials for future preservation by drying. Before drying, the vials were covered with gray slotted rubber stoppers. The vials were dried inside a vacuum chamber. The vials were sitting on the surface of a stainless steel shelf inside the chamber. Before the vacuum was applied the shelf temperature was decreased to 5 C. Then the hydrostatic pressure inside the chamber was decreased to 0.5 Torr. Under such conditions, the suspension boiled for 30 min. […] Visually, under these experimental conditions, stable dry foams were formed inside the vials within 3 hours. After an additional 12 hours of drying at room temperature, the temperature was increased to 45 C for an additional 24 hours. After that the chamber was filled with dry N2 gas, the rubber stoppers were pushed down and the vials were sealed with aluminum crimp seals.
The samples were assayed right after drying and after 30 days of storage at 40 C. After drying the Urokinase, activity was 93% of the initial activity. This decrease was associated with the loss of Urokinase during transfer from initial vials to the vials at which the Urokinase was dried. After 30 days of storage at 40 C the activity was 90%. […]

[3] = aqueous 50% glycerol solution from Sigma Chemical Co., before dialysis; cited from earlier work
[4] = isocitrate dehydrogenase activity (NADP reduction at 340 nm) after preservation by foam drying; assay type: biochemical
Procedure: An aqueous 50% glycerol isocitrate dehydrogenase solution from Sigma Chemical Co. containing 59.4 units of activity per ml was dialyzed for 5 hours in 0.1 M TRIS HCl buffer (pH 7.4). The activity of the isocitrate dehydrogenase in the 0.1 M TRIS HCl solution after dialysis was 26±1.8 units per ml. The activity decrease was associated with a decrease in the enzyme concentration because of dilution during the dialysis.
A mixture (100 l) containing 50 l of 50% by weight sucrose solution and 50 l of the isocitrate dehydrogenase suspension in 0.1 M TRIS HCl buffer (pH 7.4) was placed in 1.5 ml plastic tubes and preserved by drying at room temperature. First, the samples were dried for 4 hours under low vacuum (0.2 atm). Second, the samples were boiled during 4 hours under high vacuum (<0.01 atm). During this step, a mechanically stable dry foam was formed in the tubes. Third, the samples were stored during 8 days over DRIERITE under vacuum at room temperature.
After 8 days, the samples were rehydrated with 500 l water. Rehydration of the samples containing dry foams was an easy process that was completed within several seconds. The reconstituted sample was assayed for activity by assaying ability to reduce NADP, measured spectrophotometrically at 340 nm. The reaction mix included: 2 ml 0.1 M TRIS HCl buffer, pH 7.4; 10 l of 0.5% by weight NADP+; 10 l of 10 mM MnSO4; 10 l of 50 mM 1-isocitrate; and 10 l of an isocitrate dehydrogenase solution.

C[C@@H]1[C@H](O)[C@@H](C)/C=C/C=C/C=C/C=C/C=C/C=C/C=C/[C@H](O[C@@H]2O[C@H](C)[C@@H](O)[C@H](N)[C@@H]2O)C[C@@H]2O[C@](O)(C[C@@H](O)C[C@@H](O)[C@H](O)CC[C@@H](O)C[C@@H](O)CC(=O)O[C@H]1C)C[C@H](O)[C@H]2C(=O)O [Amphotericin, Amphotericin B]
Potency of Amphotericin (%) ([1]; Control (printed in column After drying)): 126% | Potency of Amphotericin (%) After 30 days at 27.5 C. ([1]; Td = 25 C): 114% | Potency of Amphotericin (%) After 30 days at 40 C. ([1]; Td = 25 C): 95% | Potency of Amphotericin (%) After drying ([1]; Td = 25 C): 108% | Potency of Amphotericin (%) After 30 days at 27.5 C. ([1]; Td = 45 C): 102% | Potency of Amphotericin (%) After 30 days at 40 C. ([1]; Td = 45 C): 104% | Potency of Amphotericin (%) After drying ([1]; Td = 45 C): 103%

Urokinase
Urokinase activity, % of the initial activity ([2]; after 30 days of storage at 40 C): 90% | Urokinase activity, % of the initial activity ([2]; right after drying (40 wt % sucrose foam, up to 45 C)): 93%

isocitrate dehydrogenase
activity of isocitrate dehydrogenase solution [3]: 59.4 units of activity per ml | loss of activity during drying and subsequent storage ([4]; 8 days at room temperature): no loss of activity | activity after rehydration ([4]; dried with sucrose to foam, stored 8 days over DRIERITE under vacuum at room temperature, 100 l sample rehydrated with 500 l water): 2.6±0.2 units/ml | activity of isocitrate dehydrogenase after dialysis ([4]; in 0.1 M TRIS HCl (pH 7.4) after 5 hours dialysis): 26±1.8 units per ml
